Source: article PMC7561186, “Rational design of balanced dual-targeting antibiotics with limited resistance” (PLoS Biology, 2020)
Like-named read-outs stand apart in the source and are kept apart here.

Experiments:
[1] = test system: S. aureus VISA ATCC 700699 GyrB R144I and GyrB I175T; assay: Second-step frequency-of-resistance assay in GyrB single mutants; assay type: cell-based
Procedure: To determine the spontaneous frequency-of-resistance, approximately 10^10 cells from stationary-phase MHBII broth cultures of S. aureus ATCC 700699 and S. aureus ATCC 43300 were plated to antibiotic-containing plates according to a standard protocol to determine frequency-of-resistance. Prior to plating, bacteria were grown overnight in MHBII medium at 37 °C, 250 rpm, collected by centrifugation, and washed once in equal volumes of MHBII broth. From this concentrated cell suspension (250 μL), approximately 10^10 cells were then plated to each MHBII agarose plates. Using agarose instead of agar reduced drug-adsorption and improved the performance of the assay. […] All experiments were performed in at least 3 replicates. Plates were grown at 37 °C for 72 hours. Total CFUs were determined simultaneously in each experiment by plating appropriate dilutions to antibiotic-free MHBII agar plates. Finally, resistance frequencies for each strain were calculated by dividing the number of colonies formed after a 72-hour incubation at 37 °C by the initial viable cell count.

[2] = test system: S. aureus clinical isolates; assay: microbe, parasite or virus in culture; assay type: cell-based

Cc1[nH]c(C(=O)Nc2nc3ccc(C(=O)O)cc3s2)c(Cl)c1Cl [ULD1]
454: Resistant colony number ([1]; VISA GyrB R144I, 16xMIC)
lawn: Resistant colony number ([1]; VISA GyrB I175T, 4xMIC) | Resistant colony number ([1]; VISA GyrB I175T, 8xMIC) | Resistant colony number ([1]; VISA GyrB R144I, 4xMIC)
0.25 µg/mL: MIC ([2]; Staphylococcus aureus, ATCC 29213 / MSSA, S. aureus ATCC 29213, MSSA / VSSA, test date 2018-11-07, read-out: MIC) | MIC ([2]; Staphylococcus aureus, MRSA / NRS 54, S. aureus IHMA 1308253, NRS54, MRSA / VSSA* (*Expected VAN intermediate, confirmed VAN susceptible twice), test date 2018-11-07, read-out: MIC) | MIC ([2]; Staphylococcus aureus, MRSA / USA800 / VRSA, S. aureus IHMA 672233, VRS3b, MRSA / VRSA, USA800, read-out: MIC) | MIC ([2]; Staphylococcus aureus, MRSA, S. aureus IHMA 1569509, MRSA / VSSA, read-out: MIC) | MIC ([2]; Staphylococcus aureus, MRSA, S. aureus IHMA 1585316, MRSA / VSSA, read-out: MIC) | MIC ([2]; Staphylococcus aureus, MRSA, S. aureus IHMA 1591462, MRSA / VSSA, read-out: MIC)
4.57E-08: Frequency-of-Resistance ([1]; VISA GyrB R144I, 12xMIC)
1.61E-08: Frequency-of-Resistance ([1]; VISA GyrB R144I, 16xMIC)
1288: Resistant colony number ([1]; VISA GyrB R144I, 12xMIC)
≤ 1 µg/mL: MIC ([2]; Staphylococcus aureus, MRSA / VISA / VRSA, all isolates of the panel (MRSA, VISA, VRSA), read-out: MIC against all tested S. aureus clinical isolates)
1 µg/mL: MIC ([2]; S. aureus ATCC 29213, MSSA / VSSA, test date 2018-10-25 (three repeat lines)) | MIC ([2]; Staphylococcus aureus, MRSA / NRS 3 / VISA, S. aureus IHMA 1308243, NRS3, MRSA / VISA, read-out: MIC) | MIC ([2]; Staphylococcus aureus, MRSA / NRS 21 / VISA, S. aureus IHMA 649388, NRS21, MRSA / VISA, read-out: MIC) | MIC ([2]; Staphylococcus aureus, MRSA / NRS 27 / VISA, S. aureus IHMA 1308248, NRS27, MRSA / VISA, read-out: MIC) | MIC ([2]; Staphylococcus aureus, MRSA / USA100 / VRSA, S. aureus IHMA 672235, VRS5, MRSA / VRSA, USA100, read-out: MIC) | MIC ([2]; Staphylococcus aureus, MRSA / USA100 / VRSA, S. aureus IHMA 1308256, VRS10, MRSA / VRSA, USA100, read-out: MIC) | MIC ([2]; Staphylococcus aureus, MRSA, S. aureus IHMA 1575268, MRSA / VSSA, read-out: MIC) | MIC ([2]; Staphylococcus aureus, MRSA, S. aureus IHMA 1577820, MRSA / VSSA, read-out: MIC) | MIC ([2]; Staphylococcus aureus, MRSA, S. aureus IHMA 1583795, MRSA / VSSA, read-out: MIC) | MIC ([2]; Staphylococcus aureus, MRSA, S. aureus IHMA 1584223, MRSA / VSSA, read-out: MIC) | MIC ([2]; Staphylococcus aureus, MRSA, S. aureus IHMA 1597106, MRSA / VSSA, read-out: MIC)
0.5 µg/mL: MIC ([2]; Staphylococcus aureus, ATCC 29213 / MSSA, S. aureus ATCC 29213, MSSA / VSSA, test date 2018-10-25 (three repeat lines), read-out: MIC) | MIC ([2]; Staphylococcus aureus, MRSA / NRS 4 / VISA, S. aureus IHMA 649380, NRS4, MRSA / VISA, read-out: MIC) | MIC ([2]; Staphylococcus aureus, MRSA / NRS 18 / VISA, S. aureus IHMA 649386, NRS18, MRSA / VISA, read-out: MIC) | MIC ([2]; Staphylococcus aureus, MRSA / NRS 19 / VISA, S. aureus IHMA 649387, NRS19, MRSA / VISA, read-out: MIC) | MIC ([2]; Staphylococcus aureus, MRSA / NRS 22 / USA600 / VISA, S. aureus IHMA 649389, NRS22, MRSA / VISA, USA600, read-out: MIC) | MIC ([2]; Staphylococcus aureus, MRSA / NRS 23 / VISA, S. aureus IHMA 649390, NRS23, MRSA / VISA, read-out: MIC) | MIC ([2]; Staphylococcus aureus, MRSA / NRS 24 / VISA, S. aureus IHMA 649391, NRS24, MRSA / VISA, read-out: MIC) | MIC ([2]; Staphylococcus aureus, MRSA / NRS 26, S. aureus IHMA 649392, NRS26, MRSA / VSSA, read-out: MIC) | MIC ([2]; Staphylococcus aureus, MRSA / NRS 29 / VISA, S. aureus IHMA 1308250, NRS29, MRSA / VISA, read-out: MIC) | MIC ([2]; Staphylococcus aureus, MRSA / NRS 37 / VISA, S. aureus IHMA 1308251, NRS37, MRSA / VISA, read-out: MIC) | MIC ([2]; Staphylococcus aureus, MRSA / NRS 56 / VISA, S. aureus IHMA 1308254, NRS56, MRSA / VISA, read-out: MIC) | MIC ([2]; Staphylococcus aureus, MRSA / USA100 / VRSA, S. aureus IHMA 672230, VRS1, MRSA / VRSA, USA100, read-out: MIC) | MIC ([2]; Staphylococcus aureus, MRSA / USA100 / VRSA, S. aureus IHMA 672231, VRS2, MRSA / VRSA, USA100, read-out: MIC) | MIC ([2]; Staphylococcus aureus, MRSA / USA100 / VRSA, S. aureus IHMA 672234, VRS4, MRSA / VRSA, USA100, read-out: MIC) | MIC ([2]; Staphylococcus aureus, MRSA / USA100 / VRSA, S. aureus IHMA 672237, VRS7, MRSA / VRSA, USA100, read-out: MIC) | MIC ([2]; Staphylococcus aureus, MRSA / USA100 / VRSA, S. aureus IHMA 672238, VRS8, MRSA / VRSA, USA100, read-out: MIC) | MIC ([2]; Staphylococcus aureus, MRSA / USA100 / VRSA, S. aureus IHMA 672239, VRS9, MRSA / VRSA, USA100, read-out: MIC) | MIC ([2]; Staphylococcus aureus, MRSA / USA100 / VRSA, S. aureus IHMA 1308258, VRS11b, MRSA / VRSA, USA100, read-out: MIC) | MIC ([2]; Staphylococcus aureus, MRSA, S. aureus IHMA 1575629, MRSA / VSSA, read-out: MIC) | MIC ([2]; Staphylococcus aureus, MRSA, S. aureus IHMA 1580300, MRSA / VSSA, read-out: MIC) | MIC ([2]; Staphylococcus aureus, MRSA, S. aureus IHMA 1580940, MRSA / VSSA, read-out: MIC) | MIC ([2]; Staphylococcus aureus, MRSA, S. aureus IHMA 1582100, MRSA / VSSA, read-out: MIC) | MIC ([2]; Staphylococcus aureus, MRSA, S. aureus IHMA 1586780, MRSA / VSSA, read-out: MIC) | MIC ([2]; Staphylococcus aureus, MRSA, S. aureus IHMA 1587322, MRSA / VSSA, read-out: MIC) | MIC ([2]; Staphylococcus aureus, MRSA, S. aureus IHMA 1588127, MRSA / VSSA, read-out: MIC) | MIC ([2]; Staphylococcus aureus, MRSA, S. aureus IHMA 1592755, MRSA / VSSA, read-out: MIC) | MIC ([2]; Staphylococcus aureus, MRSA, S. aureus IHMA 1592776, MRSA / VSSA, read-out: MIC) | MIC ([2]; Staphylococcus aureus, MRSA, S. aureus IHMA 1602095, MRSA / VSSA, read-out: MIC) | MIC ([2]; Staphylococcus aureus, MRSA, S. aureus IHMA 1611170, MRSA / VSSA, read-out: MIC)
